Experiments:
Pin1 = biological target: T1, Pin1 (Homo sapiens, UniProt Q13526); experiment: Evaluation of inhibitory activity on function of Pin1: cell assay using degree of AMPK phosphorylation as index; format: cell-based; design: key to Pin1 inhibitory activity: −: Promotion of AMPK phosphorylation was not (or hardly) found.; +: Phosphorylation of AMPK was promoted, but the promotion was weaker than that by C1.; ++: Phosphorylation of AMPK was promoted to the same degree as in the case of C1.; +++: Phosphorylation of AMPK was promoted more strongly than in the case of C1; conditions: 293T cells; for Pin1 inhibitory activity: compound 100 μM, 10 mM 2-DG, pAMPK immunoblot rated by comparison with C1; for inhibitory activity on Pin1 (stated in words): cell-based experiment, 100 μM
T1 construct: endogenous in cells; host or cells: 293T cells
T1 sequence (Q13526 whole entry): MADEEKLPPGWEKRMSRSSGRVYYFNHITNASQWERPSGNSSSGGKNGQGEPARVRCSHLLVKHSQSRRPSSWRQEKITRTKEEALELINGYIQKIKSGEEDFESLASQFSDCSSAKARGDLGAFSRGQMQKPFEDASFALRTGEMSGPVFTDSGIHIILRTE
Procedure: In order to evaluate the inhibitory activities of the compounds of the present invention synthesized in Example 2 on the function of Pin1, an assay using cells was carried out according to a method previously developed by the present inventors (Yusuke Nakatsu et al., Journal of Biological Chemistry, 2015, Vol. 290, No. 40, pp. 24255-24266), using as an index the degree of phosphorylation of AMPK (AMP-activated protein kinase), whose phosphorylation is known to be suppressed by Pin1.
Briefly, 293T cells were plated on a 24-well plate coated with collagen. Forty-eight hours later, each compound (100 μM) synthesized in the Example was added to the plate, and the plate was left to stand in an incubator for 30 minutes. Thereafter, 10 mM 2-DG was added to the plate, and, 1 hour later, each sample was collected using a buffer containing mercaptoethanol and SDS.
According to conventional methods, SDS-PAGE and blotting were carried out, and then blocking was carried out with 3% BSA for 1 hour. Thereafter, reaction was carried out at normal temperature for 1 hour with each of a pAMPK antibody (Cell signaling 1:2000, Can get signal solution 1: diluted by Toyobo) as a primary antibody, and an HRP-linked anti rabbit IgG (GE healthcare 1:4000, Can get signal solution 2: diluted by Toyobo) as a secondary antibody, to perform detection.
As a compound to be compared, C1: (R)-2-(5-(4-methoxyphenyl)-2-methylfuran-3-carboxamido)-3-(naphthalene-6-yl)propanoic acid, which is an already reported Pin1 inhibitor, was used.
In FIG. 3, “-” indicates the degree of phosphorylation of AMPK in a case where no Pin1 inhibitor was added, and “C1”, “H-30”, “H-31”, “H-32”, and “H-33” indicate the degrees of phosphorylation of AMPK in cases where the respective Pin1 inhibitors were added. […] The inhibitory activity on the function of Pin1 was rated as follows based on comparison with the degree of inhibition by C1.

Pin1 protein = experiment: Confirmation of Pin1 expression level in the intestinal tract of DSS mice (Example 7); format: in vivo; conditions: after 7 days of administration
Procedure: The expression level of Pin1 in the intestinal tract was measured for each mouse subjected to the therapeutic experiment in Example 5.
The present results also support that the compound synthesized in Example 2-7 (H-31) prevents development of ulcerative colitis.

[1] = system: model animals of ulcerative colitis (3% DSS); experiment: Therapeutic experiment using model animals of ulcerative colitis 2 (Example 6); format: in vivo, C57BL6 mice; conditions: DSS mice, 5-ASA 300 mg/kg/day or 150 mg/kg/day
Procedure: To C57BL6 mice of 8 weeks old, 3% DSS (dextran sulfate sodium)-containing water or water (control) was administered by allowing the mice to drink it for 7 days. […] On Day 7 after the beginning of the administration, the body weight of each mouse was measured, and the large intestine was removed from the mouse, followed by carrying out histological study. […] In addition, an experiment for measuring the colon length was carried out.

[2] = system: model animals of ulcerative colitis (3% DSS); experiment: Therapeutic experiment using model animals of ulcerative colitis (Example 4); format: in vivo, C57BL6 mice; conditions: DSS mice; for tissue damage in the large intestine (stained section): Day 7
Procedure: To C57BL6 mice of 8 weeks old, 3% DSS (dextran sulfate sodium)-containing water or water (control) was administered by allowing the mice to drink it for 7 days. For the mice to which DSS was administered, groups in which 5-ASA (compound name: 5-aminosalicylic acid; generic name: Mesalazine), which is a therapeutic agent for inflammatory bowel diseases, the compound synthesized in Example 2-7 (H-31), or the compound synthesized in Example 2-36 (H-179) was administered, and a group in which no compound was administered were provided. On Day 7 after the beginning of the administration, the body weight of each mouse was measured, and the large intestine was removed from the mouse, followed by carrying out histological study. […] In FIGS. 4(A) and (B), “normal” indicates a case where water was administered, and “DSS” indicates cases where DSS-containing water was administered. “non” indicates a case where no compound was administered, and “5-ASA”, “H-31”, and “H-179” indicate cases where the respective compounds were administered. The dose was as follows: 5-ASA, 300 mg/kg/day; H-31, 1 mg/kg/day; H-179, 1 mg/kg/day. As shown in FIG. 4(A), weight loss due to inflammation of the intestine was found in the cases where DSS was administered.

[3] = system: mice having induced inflammation of the large intestine; conditions: oral administration to mice, Non-patent Document 7; cited from earlier work

Pin1 inhibitory activity (Pin1)	SMILES	also measured
++	O=C(O[C@H](Cc1ccc2ccccc2c1)C(=O)O)c1ccc(C(O)c2ccccc2)cc1 (stereo partly shown) [Compound H-23]	
+	O=C(O[C@H](Cc1ccc2ccccc2c1)C(=O)O)c1ccc(-c2ccccc2)cc1 [Compound H-33]	
++	O=C(O[C@H](Cc1ccc2ccccc2c1)C(=O)O)c1ccc(Oc2ccccc2)cc1 [Compound H-123]	
−	O=C(O[C@H](Cc1ccc2ccccc2c1)C(=O)OCc1ccccc1)c1ccc2ccccc2c1 [Compound H-21]	inhibitory activity on Pin1 (stated in words) (Pin1): no inhibitory activity on Pin1
++	O=C(Cc1cccc2ccccc12)O[C@H](Cc1ccc2ccccc2c1)C(=O)O [Compound H-151]	
++	O=C(COc1ccc2ccccc2c1)O[C@H](Cc1ccc2ccccc2c1)C(=O)O [Compound H-177]	
+	COc1cc(OC)cc(C(=O)O[C@H](Cc2ccc3ccccc3c2)C(=O)O)c1 [Compound H-198]	
++	O=C(CC1c2ccccc2-c2ccccc21)O[C@H](Cc1ccc2ccccc2c1)C(=O)O [Compound H-106]	
	Nc1ccc(O)c(C(=O)O)c1 [Compound 5-ASA, 5-aminosalicylic acid, reference compound]	increase in the Pin1 protein level in the intestinal tract (Pin1 protein): could not be ameliorated; tissue damage in the large intestine (stained section) [1]: tissue damage in the large intestine due to DSS was found; weight loss [1]: No significant effect was found; tissue damage in the large intestine (stained section) ([2]; 5-ASA 300 mg/kg/day): tissue damage in the large intestine due to DSS was found
+	COc1ccc(C(=O)O[C@H](Cc2ccc3ccccc3c2)C(=O)O)cc1OC [Compound H-266]	
++	O=C(O[C@H](Cc1ccc2ccccc2c1)C(=O)O)C(c1ccccc1)c1ccccc1 [Compound H-134]	
+	O=C(O[C@H](Cc1ccc2ccccc2c1)C(=O)O)c1ccc(F)c(F)c1 [Compound H-270]	
++	O=C(Cc1c[nH]c2ccccc12)O[C@H](Cc1ccc2ccccc2c1)C(=O)O [Compound H-180]	
+	O=C(O[C@H](Cc1ccc2ccccc2c1)C(=O)O)c1ccccc1Oc1ccccc1 [Compound H-132]	
	O=C1C=CC(=O)c2c(O)cccc21 [Juglone]	development of inflammation of the large intestine [3]: development of the inflammation can be suppressed
+	O=C(O[C@H](Cc1ccc2ccccc2c1)C(=O)O)c1ccc(Cl)c(Cl)c1 [Compound H-269]	
+	COc1ccc(-c2cc(C(=O)O[C@H](Cc3ccc4ccccc4c3)C(=O)O)c(C)o2)cc1 [Compound H-32]	
+++	O=C(O)[C@@H](Cc1ccc2ccccc2c1)OC(=O)n1c2ccccc2c2ccccc21 [Compound H-175]	
+	O=C(Cc1ccc2ccccc2c1)O[C@H](Cc1ccc2ccccc2c1)C(=O)O [Compound H-149]	
	COc1ccc(-c2cc(C(=O)N[C@H](Cc3ccc4ccccc4c3)C(=O)O)c(C)o2)cc1 [Compound C1, (R)-2-(5-(4-methoxyphenyl)-2-methylfuran-3-carboxamido)-3-(naphthalene-6-yl)propanoic acid]	development of inflammation of the large intestine [3]: development of the inflammation can be suppressed
++	O=C(O[C@H](Cc1ccc2ccccc2c1)C(=O)O)c1cccc(Oc2ccccc2)c1 [Compound H-130]	
++	O=C(COc1ccccc1)O[C@H](Cc1ccc2ccccc2c1)C(=O)O [Compound H-176]	
+	Cc1cc(C)cc(C(=O)O[C@H](Cc2ccc3ccccc3c2)C(=O)O)c1 [Compound H-210]	
+	O=C(O[C@H](Cc1ccc2ccccc2c1)C(=O)O)c1cc(Cl)cc(Cl)c1 [Compound H-200]	
++	O=C(O[C@H](Cc1ccc2ccccc2c1)C(=O)O)c1ccc2ccccc2c1 [Compound H-30]	
++	O=C(O)[C@@H](Cc1ccc2ccccc2c1)OC(=O)N1c2ccccc2Oc2ccccc21 [Compound H-157]	
+	CC(C)(C)OC(=O)N[C@@H](Cc1ccccc1)C(=O)O[C@H](Cc1ccc2ccccc2c1)C(=O)O [Compound H-248]	
+++	O=C(COc1cccc2ccccc12)O[C@H](Cc1ccc2ccccc2c1)C(=O)O [Compound H-179]	tissue damage in the large intestine (stained section) ([2]; compound 1 mg/kg/day): tissue damage in the large intestine was hardly found; weight loss (body weight as ratio to body weight before administration) ([2]; compound 1 mg/kg/day, Day 7, vs no compound): the weight loss was significantly smaller
+++	O=C(O[C@@H](Cc1ccc2ccccc2c1)C(=O)O)C1c2ccccc2-c2ccccc21 [Compound H-141]	inhibitory activity on Pin1 (stated in words) (Pin1): both have inhibitory activities on Pin1
+	Cc1ccc(C(=O)O[C@H](Cc2ccc3ccccc3c2)C(=O)O)cc1C [Compound H-265]	

Source: patent US11203565B2, “Ester compound and PIN1 inhibitor, inflammatory disease therapeutic, and colon cancer therapeutic in which said ester compound is used” (Hiroshima University, priority 2016, dated 2021)
